Assay results reported in paper PMC5059724, “Purification and characterization of a novel phloretin-2′-O-glycosyltransferase favoring phloridzin biosynthesis” (Scientific Reports, 2016).
Each block holds one molecule with its values, some of them ahead of it.

What was measured:
MdP2′GT [1] = molecular target: MdP2′GT (Malus domestica, UniProt A0A0X9XIE3); assay: Effects of metal ions and other compounds on purified MdP2′GT activity; assay type: biochemical, Malus x domestica; parameters: key to IC50: ND: no effects detected at selected concentrations; Activator: additions increased MdP2′GT activity at selected concentrations; settings: for Effect of co-solvent on enzyme activity: 20% co-solvent
MdP2′GT [2] = molecular target: T1, MdP2′GT (Malus domestica, UniProt A0A0X9XIE3); assay: Inhibition of phloridzin formation by purified MdP2′GT from 270 uM UDPG and 20 uM phloretin, 50 mM Tris/HCl pH 7.5, 5 mM DTT, 30 °C, 30 min, product quantified by HPLC-DAD.; assay type: biochemical
T1 construct: gene P2'GT
T1 sequence (A0A0X9XIE3 1-483): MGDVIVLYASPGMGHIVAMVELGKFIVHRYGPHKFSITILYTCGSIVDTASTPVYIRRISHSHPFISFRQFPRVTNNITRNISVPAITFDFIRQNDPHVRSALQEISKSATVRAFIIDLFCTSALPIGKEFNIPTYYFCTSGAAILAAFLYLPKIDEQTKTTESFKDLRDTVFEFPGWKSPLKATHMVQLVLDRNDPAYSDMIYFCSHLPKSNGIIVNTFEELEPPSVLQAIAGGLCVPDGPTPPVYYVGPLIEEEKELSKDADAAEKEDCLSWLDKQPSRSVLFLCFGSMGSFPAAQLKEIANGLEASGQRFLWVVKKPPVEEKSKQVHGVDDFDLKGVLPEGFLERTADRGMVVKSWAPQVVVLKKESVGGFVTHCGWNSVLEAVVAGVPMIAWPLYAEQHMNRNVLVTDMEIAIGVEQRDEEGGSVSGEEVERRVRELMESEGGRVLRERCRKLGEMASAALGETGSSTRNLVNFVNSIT

UGT71A15 = test system: T2, UGT71A15; assay: Literature Km for 2′-OH glycosylation of phloretin with the UDPG/phloretin combination, quoted in the comparison table.; assay type: biochemical; settings: read-out: Km (μM), reported P2′GTs; cited from earlier work
T2 construct: literature enzyme, MW 52 kDa
From the text: (§1) Table 5 Enzyme characters and Kinetic parameters of MdP2′GT and reported P2′GTs. | Km (μM), reported P2′GTs

UGT88F1 = test system: T3, UGT88F1; assay: as above; assay type: biochemical; settings: read-out: Km (μM), reported P2′GTs; cited from earlier work
T3 construct: literature enzyme, MW 59 kDa
From the text: as §1

[3] = molecular target: Phloretin-2′-O-glycosyltransferase of Malus x domestica (MdP2′GT) (Malus x domestica); assay: SEC; Sephacryl S-300 column, 5 mg/ml purified MdP2′GT, buffer D (50 mM Tris-HCl pH 7.5, 200 mM NaCl, 5 mM DTT), calibrated with five marker proteins; native protein and protein deglycosylated with PNGase F or Endo H under native conditions; mass confirmed by MALDI-TOF
[4] = 0.5 h, pH 7.5, addition at 5 mM, compared to a control in which none is added, read-out: Relative activity
[5] = addition at 5 mM, compared to a control in which none is added
[6] = addition at 0.5 mM, compared to a control in which none is added
[7] = concentration of inhibitor required to reduce the original MdP2′GT activity by 50%, read-out: IC50
[8] = concentration of inhibitor required to reduce the original MdP2′GT activity by 50%

activity at 5000 µM (MdP2′GT [1]; [4]): 99.2 ± 1.43% | Relative activity (MdP2′GT [1]; [5]): No obvious effects
Molecule: O[C@@H](CS)[C@@H](O)CS (racemic) [Dithiothreitol]

activity at 5000 µM (MdP2′GT [1]; [4]): 3.05 ± 0.26%
Molecule: O=c1ccn([C@@H]2O[C@H](CO[P@@](=O)(O)O[P@@](=O)(O)OP(=O)(O)O)[C@@H](O)[C@H]2O)c(=O)[nH]1 (stereo in doubt) [UTP, uridine triphosphate]

Relative activity (MdP2′GT [1]; [5]): 67.81 ± 1.03% | Relative activity (MdP2′GT [1]; addition at 5 mM, compared to a control in which none is added, listed as Al^3+): partially inhibited | IC50 (MdP2′GT [1]; [7]): 8000 ± 500 µM
Molecule: [Cl][Al]([Cl])[Cl] [AlCl3]

Relative activity (MdP2′GT [1]; [5]): 0.00 ± 0.00% | Relative activity (MdP2′GT [1]; addition at 5 mM, compared to a control in which none is added, listed as Cu^2+): completely inhibited | IC50 (MdP2′GT [1]; [7]): 10 ± 10 µM
Molecule: [Cl][Cu][Cl] [CuCl2]

Effect of co-solvent on enzyme activity (MdP2′GT [1]): no effects | Relative activity (MdP2′GT [1]; addition at 704 mM, compared to a control in which none is added): 99.54 ± 1.40%
Molecule: C[S+](C)[O-] [Dimethyl sulfoxide]

IC50 (MdP2′GT [1]; [7]): 6500 ± 230 µM
Molecule: [Cl][Fe]([Cl])[Cl] [FeCl3]

Relative activity (MdP2′GT [1]; [5]): 119.43 ± 3.61% | IC50 (MdP2′GT [1]; [8]): Activator
Molecule: O=S(=O)([O-])[O-].[Fe+2] [FeSO4]

activity at 686000 µM (MdP2′GT [1]; 0.5 h, pH 7.5, addition at 686 mM (text: 5% glycerol), compared to a control in which none is added, read-out: Relative activity): 98.1 ± 2.15% | Relative activity (MdP2′GT [1]; addition at 686 mM (text: 5% glycerol), compared to a control in which none is added): No obvious effects
Molecule: OCC(O)CO [Glycerol]

Relative activity (MdP2′GT [1]; [5]): 47.41 ± 1.13% | Relative activity (MdP2′GT [1]; addition at 5 mM, compared to a control in which none is added, listed as Mn^2+): partially inhibited | IC50 (MdP2′GT [1]; [7]): 4500 ± 110 µM
Molecule: O=S(=O)([O-])[O-].[Mn+2] [MnSO4]

IC50 (MdP2′GT [2]; read-out: IC50/): 3000 ± 210 µM
Molecule: O=C(CCc1ccc(O)cc1)c1c(O)cc(O[C@@H]2O[C@H](CO)[C@@H](O)[C@H](O)[C@H]2O)cc1O [Trilobatin, trilobatin]

Relative activity (MdP2′GT [1]; [5]): 21.70 ± 1.15%
Molecule: O=C(CCc1ccc(O)cc1)c1c(O)cc(O[C@@H]2O[C@H](CO)[C@@H](O)[C@H](O)[C@H]2O)cc1O [Trilobatin]

IC50 (MdP2′GT [2]; read-out: IC50/): 100 ± 10 µM
Molecule: O=c1ccn([C@@H]2O[C@H](COP(=O)(O)OP(=O)(O)O)[C@@H](O)[C@H]2O)c(=O)[nH]1 [UDP, uridine diphosphate]

IC50 (MdP2′GT [1]; [7]): 2500 ± 100 µM
Molecule: O=c1ccn([C@@H]2O[C@H](COP(=O)(O)OP(=O)(O)OP(=O)(O)O)[C@@H](O)[C@H]2O)c(=O)[nH]1 [UTP, uridine triphosphate]

Relative activity (MdP2′GT [1]; [5]): 99.02 ± 1.47% | Relative activity (MdP2′GT [1]; addition at 5 mM, compared to a control in which none is added, listed as β-ME): No obvious effects
Molecule: OCCS [β-mercaptoethanol]

stoichiometry N [3]: 2
Molecule: Phloretin-2′-O-glycosyltransferase of Malus x domestica (MdP2′GT) (enzyme)

Continued, molecule first:

Molecule: O=C(CCc1ccc(O)c(O)c1)c1c(O)cc(O)cc1O[C@@H]1O[C@H](CO)[C@@H](O)[C@H](O)[C@H]1O [3-hydroxyphloridzin, 3-hydroxyphloridzin]
Relative activity (MdP2′GT [1]; [5]): 15.65 ± 0.58%

Molecule: O=C(CCc1ccc(O)c(O)c1)c1c(O)cc(O)cc1O[C@@H]1O[C@H](CO)[C@@H](O)[C@H](O)[C@H]1O [3-hydroxyphloridzin]
IC50 (MdP2′GT [2]; read-out: IC50/): 2500 ± 200 µM

Molecule: NCCc1ccc(S(=O)(=O)F)cc1 [AEBSF, 4-(2-Aminoethyl) benzenesulfonyl fluoride]
Relative activity (MdP2′GT [1]; [6]): No obvious effects | Relative activity (MdP2′GT [1]; addition at 0.5 mM, compared to a control in which none is added, 30 min, 500 µM): 99.51 ± 2.36%

Molecule: [Ba+2].[Cl-].[Cl-] [BaCl2]
Relative activity (MdP2′GT [1]; [6]): negligibly affected | Relative activity (MdP2′GT [1]; [5]): 99.03 ± 2.54%

Molecule: [Ca+2].[Cl-].[Cl-] [CaCl2]
Relative activity (MdP2′GT [1]; [5]): 54.21 ± 1.05% | Relative activity (MdP2′GT [1]; addition at 5 mM, compared to a control in which none is added, listed as Ca^2+): partially inhibited | IC50 (MdP2′GT [1]; [7]): 5500 ± 120 µM

Molecule: [Cl-].[Cl-].[Co+2] [CoCl2]
IC50 (MdP2′GT [1]; read-out: IC50): 50 ± 10 µM

Molecule: [Cl-].[K+] [KCl]
Relative activity (MdP2′GT [1]; [6]): negligibly affected | Relative activity (MdP2′GT [1]; [5]): 99.58 ± 2.31%

Molecule: CO [Methanol]
Effect of co-solvent on enzyme activity (MdP2′GT [1]): no effects | Relative activity (MdP2′GT [1]; addition at 1236 mM, compared to a control in which none is added): 99.23 ± 1.41%

Molecule: [Cl-].[Cl-].[Mg+2] [MgCl2]
Relative activity (MdP2′GT [1]; addition at 2 mM, compared to a control in which none is added): 130.35 ± 3.53% | Relative activity (MdP2′GT [1]; addition at 2 mM, compared to a control in which none is added, listed as Mg^2+): 130% | IC50 (MdP2′GT [1]; [8]): Activator

Molecule: CCN1C(=O)C=CC1=O [N-Ethylmaleimide]
activity at 1000 µM (MdP2′GT [1]; 0.5 h, pH 7.5, addition at 1 mM, compared to a control in which none is added, read-out: Relative activity): 20.5 ± 1.08% | Relative activity (MdP2′GT [1]; addition at 1 mM, compared to a control in which none is added): strong inhibition | IC50 (MdP2′GT [1]; [7]): 280 ± 10 µM

Molecule: [Cl-].[Na+] [NaCl, Sodium chloride]
Relative activity (MdP2′GT [1]; addition at 500 mM, compared to a control in which none is added): 100 ± 1.00% | Relative activity (MdP2′GT [1]; addition at 500 mM, compared to a control in which none is added, listed as Sodium chloride): no obvious inhibitory effects

Molecule: [Cl][Ni][Cl] [NiCl2]
Relative activity (MdP2′GT [1]; [6]): negligibly affected | Relative activity (MdP2′GT [1]; [5]): 98.26 ± 2.08%

Molecule: O=C(CCc1ccc(O)cc1)c1c(O)cc(O)cc1O [Phloretin, phloretin]
Km (UGT71A15): 82 µM | Km (UGT88F1): 0.62 µM

Molecule: O=c1ccn([C@@H]2O[C@H](COP(=O)(O)O)[C@@H](O)[C@H]2O)c(=O)[nH]1 [UMP, uridine monophosphate]
Relative activity (MdP2′GT [1]; [5]): 38.25 ± 1.07% | IC50 (MdP2′GT [2]; read-out: IC50/): 4000 ± 130 µM

Molecule: O=c1ccn([C@@H]2O[C@H](CO)[C@@H](O)[C@H]2O)c(=O)[nH]1 [Uridine]
activity at 5000 µM (MdP2′GT [1]; [4]): 98.2 ± 2.12%

Molecule: O=C(O)c1cc[c]([Hg+])cc1 [p-hydroxymercuribenzoate, p-hydroxymercuribenzoate (PHMB)]
IC50 (MdP2′GT [2]): 240 ± 70 µM

Molecule: p-hydroxymercuribenzoate
IC50 (MdP2′GT [1]; [7]): 240 ± 70 µM
